Results on seven compounds are retold here after patent US4124710A, “Acetamidoxime derivatives and use thereof” (priority 1976, dated 1978).

Structures can show the parent of a compound that is named as a salt.

For series [1], the system named is experimentally induced hypertension. The conditions noted are these: rat, in vivo; cited from earlier work.
In series [2] the test system is male rats in which chronic renal hypertension had been induced. The experiment in a line: Fall in arterial pressure in rats rendered hypertensive by the GROLLMAN method (chronic renal hypertension). The conditions noted are these: intragastric; for Fall in A.P.: 25 mg/kg, measured before and 1-6 hours after administration. In kind it is in vivo, rat.
Procedure: The first test was carried out on male rats weighing about 120g in which chronic renal hypertension had been induced by the Grollman technique [Proc. Soc. exp.
According to this technique, the animals are anaesthetized with ether and one kidney is displaced from its site without being detached from the body, the suprarenal gland having been first liberated from the kidney but otherwise left intact. The kidney is then bound with twine in the form of a figure eight, just tightly enough to alter slightly the ellipsoid shape of the organ. Ten days later, the other kidney is completely removed together with its suprarenal gland.
Arterial pressure was measured immediately before and 1,2,3,4,5 and 6 hours after administration.
Series [3] has as its system albino male rats. The experiment in a line: Ionic ratio in urinary excretion (technique of AMBROSILI et al.). The class given is in vivo, rat. The conditions noted are these: for Na^+ /K^+ Ratio / K^+ excretion / Na^+ excretion / Urinary excretion: intragastric, 4 hours; for Na^+ /K^+ Ratio: control 1; for K^+ excretion: control 18.5; for Na^+ excretion: control 27.3; for Urinary excretion: control 40. As to the method: 2 -- Ionic ratio in urinary excretion
This test was performed according to the technique of AMBROSILI et al. (Minerva Nepol. 11,56, 1964).
The substance to be tested was given by intragastric route immediately after the intragastric administration of 50 ml/kg of distilled water to groups of 20 albino male rats weighing 140 { 10g which had been fasting for 18 hours.
A control group, also comprising 20 animals, only received the distilled water.
The total amount of urine excreted during the 4 hours following administration was collected and measured and the total Na^+ and K^+ ion excretion values determined.
These values were then converted to millieequivalents per liter (mEq/l.) in order to obtain the correct Na^+ and K^+ ion excretion figures independently of the increase in the amount of urine.
The ionic ratio was obtained according to the following formula: [formula]

For series [4], the system named is experimentally induced hypertension. The experiment in a line: Experimentally induced hypertension, general statements on anti-hypertensive activity. The conditions noted are these: rat, in vivo. As to the method:
(§1) All of these tests were performeed on rats which were in a state of hypertension. Each test was divided into two series. In the first series, one single dose of the product under study was administered by intragastric route to each animal and the arterial pressure of the latter was measured every hour for six hours after administration. In the second series the product under study was given by the same route every day for eleven consecutive days and arterial pressure was measured daily throughout this period. The amount of product administered varied from one animal to another.

Series [5] has as its system Rat. The experiment in a line: Acute toxicity in rats. In kind it is in vivo. As to conditions: 12 days observation. As to the method:
(§2) Finally, acute toxicity trials were carried out on rats and mice which were kept under observation for 12 days following one single administration.

The subject of series [6] is rats with saline hypertension. The experiment in a line: Saline hypertension (technique of DAHL, KNUDSEN, HEINE and LEITL). In kind it is in vivo, rat. As to conditions: intragastric. As for the experimental part:
as §1
This test was performed in accordance with the technique of DAHL, KNUDSEN, HEINE and LEITL.
Male rats weighing 55 ± 5g were fed on food containing 8% of NaCl but which was otherwise normal.
After six weeks of this diet, arterial pressure had risen to about 180 mm.Hg.

Series [7] deals with rats with hypertension of endocrine origin. The experiment in a line: Hypertension of endocrine origin (DOCA; technique of STANTON and WHITE). The class given is in vivo, rat. The conditions noted are these: intragastric. As for the experimental part: as §1
(2) Hypertension of endocrine origin
This test was performed in accordance with the technique of STANTON and WHITE (Arch. Int. Pharmacodyn. 154, 351, 1965).
Female rats weighing 90 ± 10g were anaesthetized with ether and hypertension was produced by ablation of one kidney and the corresponding adrenal gland, after which a dose of 50 mg/kg of desoxycorticosterone acetate (DOCA) was administered subcutaneously five days a week over a period of four weeks. Throughout this period the drinking-water given to the rats contained 1% of NaCl. This was replaced by ordinary tap-water when administration of the desoxycorticosterone ceased.
Under these circumstances, arterial pressure rose to about 200 mm.Hg.

The test system of series [8] is Mouse. The experiment in a line: Acute toxicity in mice. In kind it is in vivo. The conditions noted are these: 12 days observation. As to the method:
as §2

For series [9], the system named is nictitating membrane of an anaesthetized cat. The experiment in a line: Ganglioplegic activity: contractions of the nictitating membrane of anaesthetized cat. In kind it is in vivo. The conditions noted are these: two intravenous doses of 5 mg/kg. As to the method:
(1) The arterial pressure and the tonus of the nictitating membrane of an anaesthetized cat was first noted, after which the contractile reaction of the membrane to an intravenous injection of adrenaline and to electric stimulation of the preganglionic fibre of the cervical sympathetic nerve was tested.

Series [10] deals with male albino rats. The experiment in a line: Volumetric urinary excretion (technique of LIPSCHITZ et al.). The class given is in vivo, rat. As to conditions: intragastric, 6 hours, % of volume of saline administered. As to the method: 1 -- Volumetric urinary excretion
This test was performed according to the technique of LIPSCHITZ et al. (J. Pharmacol. exp. Therap. 79, 97, 1943), by using groups of 20 male albino rats weighing from 150 to 200g which had been deprived of food and drink for 18 hours.
The substance to be tested was given by intragastric route immediately after the intragastric administration of 50 ml/kg of a 9°/°° solution of NaCl.
A control group also of 20 rats only received the saline solution. The total amount of urine excreted during the 6 hours following administration was collected and measured.

The test system of series [11] is rats with genetic hypertension. The experiment in a line: Genetic hypertension (technique of OKAMOTO and AOKI). In kind it is in vivo, rat. The conditions noted are these: for Maximum fall in A.P.: intragastric. As for the experimental part:
as §1
This test was performed in accordance with the technique of OKAMOTO and AOKI (Jap. Circul. J., 27, 282, 1963), using male rats belonging to a race which has been specially bred to produce animals having high blood pressure.

Series [12] deals with hypertensive effect of acetylcholine in dog. The experiment in a line: Ganglioplegic activity: hypertensive effect of acetylcholine in anaesthetized atropinized dog.
The subject of series [13] is rats with neurogenic hypertension. The experiment in a line: Neurogenic hypertension (technique of KRIEGER and IMBS). The class given is in vivo, rat. The conditions noted are these: intragastric. As for the experimental part: as §1
(4) Neurogenic hypertension
This test was performed in accordance with the technique of KRIEGER and IMBS (Circul. Res. 15, 511, 1964 and C.R. Soc. Biol. 162, 778, 1968).
Male rats weighing from 200 to 250g were anaesthetized with ether and 0.5mg of atropine sulphate was administered to them intraperitoneally.
The rats were fixed in a supine position and an incision was made in the front of the neck to expose the neuromuscular bundle comprising the sumpathetic and vagus nerve and the common carotid arteries.
The vagus nerves and the carotid arteries were then carefully isolated while one centimeter was cut out of the sympathetic nerves. […] The area in which the carotids divide was exposed by pulling aside the appropriate neck muscles (sternocleidomastoideus and omohyoideus). The vessels thus liberated were painted with 10% phenol in ethanol. In this way, complete sympathetic denervation was obtained.
A marked rise in arterial pressure was obtained after 5 to 8 days.

For `CCCN1CCN(C(=N)Cc2c(CC)oc3ccccc23)CC1` [2-(2-ethyl-3-benzofuranyl)-N,N-(3-n-propyl-3-aza-pentamethylene)-acetamidine dihydrochloride, reference compound], the “activity in the treatment of experimentally induced hypertension” value in series [1] is recorded as “pharmacologically active”. The “fall in arterial pressure” value in series [2] (50 mg/kg) is reported as 14 mm.Hg; in series [2] (200 mg/kg) it was 24 mm.Hg.
For the compound `Cc1oc2ccccc2c1CC(=NO)NCCN1CCOCC1` [2-(2-Methyl-3-benzofuranyl)-N-(2-morpholino-ethyl)-acetamidoxime], the “Fall in A.P.” value in [2] is recorded as 25 mm.Hg.
On the same count and under the same terms, to `CCc1oc2ccc(Cl)cc2c1CC(=NO)NCCN1CCOCC1` [2-(2-Ethyl-5-chloro-3-benzofuranyl)-N-(2-morpholino-ethyl)-acetamidoxime] belongs 21 mm.Hg.
Take `CCc1oc2ccccc2c1CC(=NO)NCCN1CCOCC1` [L 9552, 2-(2-ethyl-3-benzofuranyl)-N-(2-morpholino-ethyl)-acetamidoxime]: the “Na^+ /K^+ Ratio” value was 1.09 in series [3] (10 mg/kg); 1.66 in series [3] (20 mg/kg); 2.50 in series [3] (50 mg/kg); 3.37 in [3] (100 mg/kg); 3.34 in series [3] (200 mg/kg). For the same compound, the “K^+ excretion” value in [3] (10 mg/kg) is given as 15.3 mEq/l; in series [3] (20 mg/kg), 17.5 mEq/l; in series [3] (50 mg/kg), 15.0 mEq/l; in series [3] (100 mg/kg), 14.3 mEq/l; in series [3] (200 mg/kg) it was 15.8 mEq/l. For the same compound, the “Na^+ excretion” value in series [3] (10 mg/kg) was 24.8 mEq/l; in series [3] (20 mg/kg) it was 43.0 mEq/l; in series [3] (50 mg/kg), 55.6 mEq/l; in [3] (100 mg/kg), 71.3 mEq/l; in series [3] (200 mg/kg), 78.0 mEq/l. Further, the Urinary excretion in series [3] (10 mg/kg) was 55%; in series [3] (20 mg/kg), 80%; in series [3] (50 mg/kg) it was 95%; in [3] (100 mg/kg) it was 137%; in series [3] (200 mg/kg), 124%; in series [10] (10 mg/kg), 84%. The Urinary excretion in series [10] (20 mg/kg) is 102%; in [10] (50 mg/kg), 118%; in [10] (100 mg/kg), 138%; in series [10] (200 mg/kg) it was 165%. Moreover, in series [3] (rat, in vivo), the sodium-excretion index entry is given as “very favourable”. Also, the “activity in the five types of experimentally induced hypertension” value in series [4] is “active”. Besides, the LD0 in [5] (intragastric) is recorded as 1,100 mg/kg; in series [5] (intraperitoneal), 80 mg/kg; in series [8] (intragastric) it was 250 mg/kg; in series [8] (intraperitoneal), 30 mg/kg. The LD95 in series [5] (intragastric) is given as 2,500 mg/kg; in series [5] (intraperitoneal), 350 mg/kg; in series [8] (intragastric), 1,250 mg/kg; in [8] (intraperitoneal), 110 mg/kg. Also, the “Maximum fall in A.P.” value in [6] (daily doses (11 days) 10 mg/kg) turned out to be 13 mm.Hg; in series [6] (daily doses (11 days) 25 mg/kg), 26 mm.Hg; in series [6] (daily doses (11 days) 50 mg/kg), 53 mm.Hg; in [6] (single dose 10 mg/kg) it was 14 mm.Hg; in series [6] (single dose 25 mg/kg), 27 mm.Hg; in series [6] (single dose 50 mg/kg), 54 mm.Hg. Moreover, the “Maximum fall in A.P.” value in series [7] (daily doses (11 days) 25 mg/kg) is 15 mm.Hg; in [7] (daily doses (11 days) 50 mg/kg), 30 mm.Hg; in series [7] (daily doses (11 days) 100 mg/kg), 49 mm.Hg; in series [7] (single dose 25 mg/kg) it was 18 mm.Hg; in series [7] (single dose 50 mg/kg), 26 mm.Hg; in series [7] (single dose 100 mg/kg), 45 mm.Hg. Moreover, the “Maximum fall in A.P.” value in [2] (daily doses (11 days) 10 mg/kg) is reported as 18 mm.Hg; in [2] (daily doses (11 days) 25 mg/kg) it was 32 mm.Hg; in [2] (daily doses (11 days) 50 mg/kg), 47 mm.Hg; in series [2] (single dose 10 mg/kg), 14 mm.Hg; in [2] (single dose 25 mg/kg), 36 mm.Hg; in series [2] (single dose 50 mg/kg), 55 mm.Hg. The “Maximum fall in A.P.” value in series [11] (daily doses (11 days) 5 mg/kg) stood at 0 mm.Hg; in series [11] (daily doses (11 days) 10 mg/kg), 26 mm.Hg; in series [11] (daily doses (11 days) 20 mg/kg), 47 mm.Hg; in series [11] (single dose 5 mg/kg) it was 16 mm.Hg; in series [11] (single dose 10 mg/kg) it was 35 mm.Hg; in series [11] (single dose 20 mg/kg), 52 mm.Hg. In addition, the “Maximum fall in A.P.” value in series [13] (daily doses (11 days) 10 mg/kg) is recorded as 17 mm.Hg; in series [13] (daily doses (11 days) 25 mg/kg), 35 mm.Hg; in series [13] (single dose 10 mg/kg), 18 mm.Hg; in [13] (single dose 25 mg/kg), 37 mm.Hg; in series [13] (single dose 50 mg/kg), 56 mm.Hg. The “Fall in A.P.” value in series [2] is recorded as 36 mm.Hg. In addition, the “effect on intensity of contractions of the nictitating membrane (adrenaline, electric stimulation)” value in series [9] is recorded as “did not modify the intensity of the contractions of the membrane”. Moreover, the “activity in genetic hypertension” value in series [11] (rat, in vivo) is recorded as “especially active”. Moreover, the “effect on the hypertensive effect of acetylcholine” value in series [12] (5 mg/kg intravenous, 1 mg/kg acetylcholine) is listed as “did not alter the hypertensive effect”.
Take `CCCCN(CCCC)CCNC(Cc1c(CC)oc2ccccc12)=NO` [2-(2-Ethyl-3-benzofuranyl)-N-(2-di-n-butylamine-ethyl)-acetamidoxime]: the “Fall in A.P.” value in series [2] amounted to 27 mm.Hg.
As to `C[N+]1(CC(=O)c2ccc(-c3ccccc3)cc2)[C@@H]2CC[C@H]1C[C@@H](OC(=O)[C@H](CO)c1ccccc1)C2` (stereo partly shown) [phenthonium, reference compound], the “effect on the hypertensive effect of acetylcholine” value in series [12] (dose not stated, ganglioplegic substance) is on record as “annulled the hypertensive effect of acetylcholine”.
Turning to `NS(=O)(=O)c1cc2c(cc1Cl)NCNS2(=O)=O` [hydrochlorothiazide, reference compound], the “activity in this test” value in [2] (200 mg/kg) was “inactive”.
